Measured values: ChEMBL document CHEMBL1201862, “PubChem BioAssay data set” (2004)
Blank lines part the entries; values can stand above or below the compound they belong to. The source made the active and inactive calls.

Experiments:
[1] = P. falciparum late gametocyte killing, dose response, luminescence (AID 1117278); type: functional, cell-based;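 also: gametocytes exposed to compound for 24 hours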
[2] = Jurkat T cell cytotoxicity, dose response, cytotoxicity control for P. falciparum gametocyte viability project, luminescence (AID 1117277); type: functional, cell-based;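 also: potency reflects loss of cellular ATP meaning fewer viable cells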
[3] = target: Mitogen-activated protein kinase 10 (Homo sapiens, UniProt P53779); assay: Dose response biochemical screening assay for inhibitors of c-Jun N-Terminal Kinase 3 (JNK3). [Related pubchem assays: 746 ]
[4] = target: Metabotropic glutamate receptor 5 (Rattus norvegicus, UniProt P31424); assay: Identification of a glycine sulfonamide based non-MPEP site positive allosteric potentiator (PAM) of mGlu5 (calcium_assay).; type: functional
Paired box protein Pax-8 = Paired box protein Pax-8 (Homo sapiens, UniProt Q06710); assay: inhibitors of PAX8-driven TPO luciferase reporter, dose response, RMG-I cells, cherry-pick (AID 687027); type: functional, cell-based;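 also: luciferase reporter driven by Pax8 target thyroperoxidase promoter measured by SteadyGlo luminescence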
[5] = A2780 ovarian cancer cell cytotoxicity, dose response, cytotoxicity control, plate reader, dry powder samples (AID 743046); type: functional, cell-based
[6] = NIH:OVCAR-3 ovarian cancer cell cytotoxicity, dose response, PAX8 inhibitor project, plate reader, dry powder samples (AID 743044); type: functional, cell-based
[7] = cytotoxicity in OVCAR8 ovarian cancer cells, dose response, PAX8 project, cell-based, plate reader, dry powder samples (AID 743197); type: functional; settings: OVCAR-8
[8] = IOSE-T80 ovarian epithelial cell cytotoxicity, dose response, cytotoxicity control for PAX8 inhibitor project, plate reader, dry powder samples (AID 743045); type: functional, cell-based
[9] = IGROV1 ovarian cancer cell cytotoxicity, dose response, PAX8 inhibitor project, plate reader, dry powder samples (AID 743043); type: functional, cell-based; settings: IGROV-1
[10] = non-specific cell cytotoxicity, dose response, cytotoxicity control for PAX8 inhibitor project, plate reader, dry powder samples (AID 743021); type: functional, cell-based
[11] = THP-1 cell cytotoxicity, dose response, cytotoxicity control for Vif-APOBEC3G degradation inhibitor project, THP-1 cells (AID 1117359); type: functional; settings: Human immunodeficiency virus 1, THP-1
[12] = A375 melanoma cell viability loss, dose response, counter-screen for MITF inhibitor project, CellTiter-Glo luminescence, dry powder, set 4 (AID 624364); type: functional, cell-based; settings: A-375;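 also: A375 melanoma cells are MITF independent so this is a counter screen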
[13] = A375 melanoma cell cytotoxicity, dose response, counter-screen for MITF inhibitor project, CellTiter-Glo luminescence, dry powder, set 2 (AID 624489); type: functional, cell-based; settings: A-375;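 also: actives are compounds lowering A375 viability meaning general cytotoxicity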
[14] = Luminescent dose response cell-based high throughput screening assay for inhibitors of the Janus kinase 2 mutant JAK2V617F. [Related pubchem assays: 1446 (Primary screen.), 1521 (Confirmation assay.), 1486 (Counter screen.)]; type: functional

Chain of Mitogen-activated protein kinase 10 (P53779 whole entry): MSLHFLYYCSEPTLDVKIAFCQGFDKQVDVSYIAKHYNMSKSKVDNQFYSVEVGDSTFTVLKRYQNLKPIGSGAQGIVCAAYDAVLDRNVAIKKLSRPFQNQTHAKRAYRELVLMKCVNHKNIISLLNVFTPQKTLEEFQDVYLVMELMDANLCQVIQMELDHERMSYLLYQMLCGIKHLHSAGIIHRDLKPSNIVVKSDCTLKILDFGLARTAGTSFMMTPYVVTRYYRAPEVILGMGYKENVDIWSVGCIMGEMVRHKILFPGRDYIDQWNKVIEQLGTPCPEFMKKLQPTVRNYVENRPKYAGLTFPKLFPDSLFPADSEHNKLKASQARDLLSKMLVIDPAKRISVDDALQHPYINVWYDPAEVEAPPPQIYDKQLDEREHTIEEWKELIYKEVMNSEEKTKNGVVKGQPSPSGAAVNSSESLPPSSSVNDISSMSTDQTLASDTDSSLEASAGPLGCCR
Chain of Paired box protein Pax-8 (Q06710 whole entry): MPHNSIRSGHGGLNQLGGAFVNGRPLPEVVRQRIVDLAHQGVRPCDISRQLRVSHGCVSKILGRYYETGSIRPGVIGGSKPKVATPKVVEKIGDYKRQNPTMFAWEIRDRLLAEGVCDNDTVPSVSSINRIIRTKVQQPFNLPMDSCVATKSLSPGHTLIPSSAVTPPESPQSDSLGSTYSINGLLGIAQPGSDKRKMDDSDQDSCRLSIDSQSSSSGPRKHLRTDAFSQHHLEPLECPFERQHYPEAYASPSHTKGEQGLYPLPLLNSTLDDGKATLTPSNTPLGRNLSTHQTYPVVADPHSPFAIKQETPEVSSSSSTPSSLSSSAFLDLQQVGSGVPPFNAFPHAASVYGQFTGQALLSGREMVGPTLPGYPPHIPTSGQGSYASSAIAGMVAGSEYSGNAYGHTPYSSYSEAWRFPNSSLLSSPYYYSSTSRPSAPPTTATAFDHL
Chain of Metabotropic glutamate receptor 5 (P31424 whole entry): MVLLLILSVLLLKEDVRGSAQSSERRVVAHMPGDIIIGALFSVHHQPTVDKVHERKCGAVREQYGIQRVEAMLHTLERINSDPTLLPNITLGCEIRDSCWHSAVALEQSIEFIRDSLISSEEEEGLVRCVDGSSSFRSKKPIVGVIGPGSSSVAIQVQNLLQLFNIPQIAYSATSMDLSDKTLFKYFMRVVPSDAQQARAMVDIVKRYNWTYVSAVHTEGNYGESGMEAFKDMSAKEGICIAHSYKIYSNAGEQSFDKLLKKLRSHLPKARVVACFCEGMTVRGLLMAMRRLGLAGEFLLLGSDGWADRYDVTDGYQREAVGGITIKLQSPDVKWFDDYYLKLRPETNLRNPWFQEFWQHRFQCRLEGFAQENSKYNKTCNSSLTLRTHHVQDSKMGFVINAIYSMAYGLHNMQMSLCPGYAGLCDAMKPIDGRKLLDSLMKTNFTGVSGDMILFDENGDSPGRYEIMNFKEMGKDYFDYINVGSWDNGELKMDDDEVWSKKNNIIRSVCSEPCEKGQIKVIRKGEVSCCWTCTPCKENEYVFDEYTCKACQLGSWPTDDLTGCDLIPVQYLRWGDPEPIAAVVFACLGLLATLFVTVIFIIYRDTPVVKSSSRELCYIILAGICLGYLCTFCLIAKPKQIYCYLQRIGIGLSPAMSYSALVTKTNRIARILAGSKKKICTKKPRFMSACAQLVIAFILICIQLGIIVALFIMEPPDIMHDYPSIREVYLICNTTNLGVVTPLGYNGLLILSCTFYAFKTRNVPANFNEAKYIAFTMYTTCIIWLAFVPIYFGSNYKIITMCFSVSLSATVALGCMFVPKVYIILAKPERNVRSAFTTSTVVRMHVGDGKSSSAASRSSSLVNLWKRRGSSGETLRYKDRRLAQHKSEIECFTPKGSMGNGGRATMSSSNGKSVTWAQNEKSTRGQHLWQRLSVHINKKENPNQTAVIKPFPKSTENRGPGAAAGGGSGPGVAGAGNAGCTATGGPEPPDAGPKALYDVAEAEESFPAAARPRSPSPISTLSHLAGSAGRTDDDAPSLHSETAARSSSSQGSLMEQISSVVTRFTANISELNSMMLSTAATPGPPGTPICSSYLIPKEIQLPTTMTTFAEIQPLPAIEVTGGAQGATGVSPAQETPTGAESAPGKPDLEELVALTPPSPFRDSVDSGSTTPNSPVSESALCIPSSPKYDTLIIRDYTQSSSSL

Structure (SMILES): CC(=O)c1cccc(CN2CCN(C3CCCCC3)C(CCO)C2)c1 (stereo unspecified)
IC50 [1]: > 109 µM (inactive)
IC50 [2]: > 83.3 µM (inactive)

IC50 [3]: 29.5 µM (not active)
Structure (SMILES): O=C(Cn1cnc2ccccc2c1=O)Nc1ccc(-c2nnc3n2CCCCC3)cc1

EC50 [4]: > 30 µM (inactive)
Structure (SMILES): CC(C(=O)Nc1ccc(Cl)cn1)N(c1ccccc1Cl)S(C)(=O)=O (stereo unspecified)

Structure (SMILES): C[C@@H]1CN([C@@H](C)CO)C(=O)c2cc(NC(=O)Nc3ccc(F)cc3)ccc2O[C@@H](C)CCCCO[C@@H]1CN(C)Cc1ccc(C(F)(F)F)cc1
AC50 (Paired box protein Pax-8): 9.46 µM (active)
AC50 [5]: 0.363 µM (active)
AC50 [6]: 33.6 µM (active)
AC50 [7]: 39.9 µM (active)

Structure (SMILES): COc1ccc(NC(=O)N2C[C@@H]3N[C@H](C2)[C@@H]3c2ccc(-c3ccc(OC)cc3)cc2)cc1
AC50 (Paired box protein Pax-8): 13.7 µM (active)
AC50 [8]: 23.3 µM (active)
AC50 [6]: 46.6 µM (active)
AC50 [9]: 26.6 µM (active)
AC50 [10]: 32.5 µM (active)
AC50 [7]: 48.5 µM (active)

Structure (SMILES): CC12CCC(C(=O)Nc3cc(F)ccc3F)(CC1=O)C2(C)C (stereo unspecified)
CC50 [11]: > 40 µM (active)

Structure (SMILES): CC(=O)NC1=C(c2cccc(Cl)c2)C(=O)c2ccccc2C1=O
AC50 [12]: 14.4 µM (active)
AC50 [13]: 7.22 µM (active)

IC50 [3]: 40.7 µM (not active)
Structure (SMILES): O=C(c1cccc2c1-c1ccccc1/C2=N/O)N1CCCCC1

Structure (SMILES): O=C(NC1=C(c2ccc(OC(F)(F)F)cc2)C(=O)c2ccccc2C1=O)c1ccc(Br)cc1
AC50 [12]: 41.1 µM (active)
AC50 [13]: 36.5 µM (active)

Structure (SMILES): CC(C)C1C(C#N)=C(N)Oc2[nH]nc(-c3ccc4ccccc4c3)c21 (stereo unspecified)
IC50 [14]: 2.41 µM (active)
